Patent publication US20020107248A1, “Method for treating patients with neoplasia by administering substituted sulfonyl indenyl acetic and propionic acids and esters thereof” (priority 1991, published 2002)

Test system: colonic bacteria

conversion of the sulfonyl compound in human fecal material: converted to an unknown derivative
SMILES: CC1=C(CC(=O)O)c2cc(F)ccc2C1=Cc1ccc(S(C)(=O)=O)cc1 [Example 10, α-(1-ρ-Methylsulfonylbenzylidene)-2-Methyl-5-Fluoro-3-Indenyl-Acetic Acid]
